Results reported in patent US12655107B2 (The United States of America, as represented by the …, priority 2018, dated 2026).
Several values for one entry are separate records, joined by “and”; a condition that tells them apart may be missing. Equal entries are not always repeated.

What was measured:
Top1 = target: T1, Top1 (Homo sapiens, UniProt P11387); experiment: Top1-mediated DNA cleavage assay; format: biochemical; settings: for Top1 cleavage: inhibition relative to 1 μM CPT, Table 6
T1 sequence (P11387 1-765): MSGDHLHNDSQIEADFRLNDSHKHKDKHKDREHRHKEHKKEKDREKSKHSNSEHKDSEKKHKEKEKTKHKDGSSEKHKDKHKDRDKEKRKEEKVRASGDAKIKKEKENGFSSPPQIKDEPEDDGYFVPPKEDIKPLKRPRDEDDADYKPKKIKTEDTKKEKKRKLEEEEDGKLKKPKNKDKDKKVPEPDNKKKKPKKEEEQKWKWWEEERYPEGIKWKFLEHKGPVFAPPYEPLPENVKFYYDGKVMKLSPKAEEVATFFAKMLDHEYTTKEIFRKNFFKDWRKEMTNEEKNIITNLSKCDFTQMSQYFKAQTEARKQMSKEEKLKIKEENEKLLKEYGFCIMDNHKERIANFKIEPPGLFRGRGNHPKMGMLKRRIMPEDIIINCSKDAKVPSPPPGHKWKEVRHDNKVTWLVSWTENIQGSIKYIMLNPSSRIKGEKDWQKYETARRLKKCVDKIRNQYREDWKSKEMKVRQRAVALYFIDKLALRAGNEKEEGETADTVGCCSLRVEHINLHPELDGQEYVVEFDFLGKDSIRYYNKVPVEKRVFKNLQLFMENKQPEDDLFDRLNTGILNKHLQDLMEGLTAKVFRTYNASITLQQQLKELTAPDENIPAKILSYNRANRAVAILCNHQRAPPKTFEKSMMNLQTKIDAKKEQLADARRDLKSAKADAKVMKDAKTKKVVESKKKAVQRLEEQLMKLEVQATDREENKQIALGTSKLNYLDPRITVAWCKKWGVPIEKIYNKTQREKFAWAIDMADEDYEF

Tdp1 = Tdp1 (Homo sapiens, UniProt Q9NUW8); experiment: Tdp1 inhibition gel-based assay; settings: IC50 Tdp1 (μM), Table 6; replicate values listed in one cell
Chain of Tdp1 (Q9NUW8 whole entry): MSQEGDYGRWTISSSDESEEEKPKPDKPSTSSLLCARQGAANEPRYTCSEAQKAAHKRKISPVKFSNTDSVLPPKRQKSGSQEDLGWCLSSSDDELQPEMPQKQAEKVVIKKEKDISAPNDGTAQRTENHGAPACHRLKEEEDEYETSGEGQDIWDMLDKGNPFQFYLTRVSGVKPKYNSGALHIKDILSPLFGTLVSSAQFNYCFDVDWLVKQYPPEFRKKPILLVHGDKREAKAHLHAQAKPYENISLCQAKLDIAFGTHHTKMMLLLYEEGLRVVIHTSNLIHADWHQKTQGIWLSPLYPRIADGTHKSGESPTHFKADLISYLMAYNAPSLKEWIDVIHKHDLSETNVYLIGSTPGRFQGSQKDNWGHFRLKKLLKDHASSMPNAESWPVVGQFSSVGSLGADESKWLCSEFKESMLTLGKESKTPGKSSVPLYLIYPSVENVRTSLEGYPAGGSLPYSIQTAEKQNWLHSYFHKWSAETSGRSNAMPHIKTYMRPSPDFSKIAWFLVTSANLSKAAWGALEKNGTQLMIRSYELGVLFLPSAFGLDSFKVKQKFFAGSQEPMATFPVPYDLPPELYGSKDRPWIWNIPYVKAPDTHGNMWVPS
Procedure: The indenoisoquinoline 10 was used as the positive control.
Gel-based assay. […] Gels were dried and exposed to a PhosphorImager screen (GE Healthcare). Gel images were scanned using a Typhoon FLA 9500 scanner (GE Healthcare), and densitometry analyses were performed using the ImageQuant software (GE Healthcare).

Row | Structure (SMILES) | Top1 cleavage (Top1) | IC50 (Tdp1) | TOP1 inhibition (Top1; graded relative to CPT at 1 μM, Table 7)
1 | COc1cc2ccc3c4ccc5c(c4c(=O)n(CCN(C)C)c3c2cc1OC)OCO5 [TWL-189] | + (+ is 20-50%) | > 111 µM | –
2 | COc1cc2c(SCCN(C)C)nc3c4cc5c(cc4ccc3c2cc1OC)OCO5 [NTD-403] | ++ (n = 2) (++ is 50-75%) | > 111 µM | –
3 | C=CCOc1nc2c3cc4c(cc3ccc2c2cc(OC)c(OC)cc12)OCO4 [NTD-332] | – | > 111 µM | –
4 | COc1cc2c(OCCCOC(=O)c3ccc(Cl)cc3)nc3c4cc5c(cc4ccc3c2cc1OC)OCO5 [NTD-210] | + (+ is 20-50%) | > 111 µM | –
5 | COc1cc2c(NCCCN(C)C)nc3c4cc5c(cc4ccc3c2cc1OC)OCO5 [NTD-301] | 0 (0 is inactive) | 38 µM | –
6 | COc1ccc2ccc3c4ccccc4c(=O)n(CCN(C)C)c3c2c1 [TWL-33] | + (+ is 20-50%) | > 111 µM | –
7 | COc1cc2c[n+](CCCn3ccnc3)c3c4cc5c(cc4ccc3c2cc1OC)OCO5 [NTD-192] | – | 81.3 ± 14.5 µM | –
8 | COc1cc2c(N(C)C)nc3c4cc5c(cc4ccc3c2cc1OC)OCO5 [NTD-329] | – | > 111 µM | –
9 | COc1cc2c(cc1O)c(=O)n(CCN(C)C)c1c3cc4c(cc3ccc21)OCO4 [TWL-113] | + (+ is 20-50%) | > 111 µM (2×) and 65 µM | –
10 | COc1cc2c(OCCCN3CCN(C(C)=O)CC3)nc3c4cc5c(cc4ccc3c2cc1OC)OCO5 [NTD-205] | ++ (++ is 50-75%) | > 111 µM | –
11 | CN(C)CCn1c(=O)c2ccccc2c2ccc3ccccc3c21 [TWL-5] | + (+ is 20-50%) | 75.9 µM and > 111 µM (2×) and 64.6 µM | –
12 | CN(C)CCn1c(=O)c2ccccc2c2ccc3cc(Br)ccc3c21 [TWL-53] | – | > 111 µM | –
13 | COc1cc2c(=O)n(CCN(C)C)c3c4cc5c(cc4c(OC)cc3c2cc1OC)OCO5 [TWL-246] | ++ (++ is 50-75%) | – | –
14 | COc1cc2c[n+](CCN(C)C)c3c4cc5c(cc4ccc3c2cc1OC)OCO5 [NTD-191] | – | 64.2 ± 23.9 µM | –
15 | COc1cc2ccc3c4cc5c(cc4c(=O)n(CCN(C)C)c3c2cc1OC)OCO5 [TWL-107] | – | 67.6 µM | –
16 | COc1cc2c(NCCN3CCCC3)nc3c4cc5c(cc4ccc3c2cc1OC)OCO5 [NTD-307] | – | 56.2 µM | –
17 | COc1cc2c(=O)n(CCN(C)P3(=O)OCCO3)c3c4cc5c(cc4ccc3c2cc1OC)OCO5 [Compound 57, 2,3-dimethoxy-12-(2-(methyl(2-oxido-1,3,2-dioxaphospholan-2-yl)amino)ethyl)-[1,3]dioxolo[4′,5′:4,5]benzo[1,2-c]phenanthridin-13(12H)-one] | – | – | ++ (++, between 50% and 75% activity)
18 | CCOC(=O)COc1nc2c3cc4c(cc3ccc2c2cc(OC)c(OC)cc12)OCO4 [NTD-334] | – | > 111 µM | –

More lines, main results first:

Row | Top1 cleavage (Top1) | IC50 (Tdp1) | Structure (SMILES) | TOP1 inhibition (Top1; graded relative to CPT at 1 μM, Table 7)
19 | + (n = 2) (+ is 20-50%) | > 111 µM | COc1cc2c(NCCN3CCOCC3)nc3c4cc5c(cc4ccc3c2cc1OC)OCO5 [NTD-309] | –
20 | – | > 111 µM | CCN(CC)CC[n+]1cc2cc(OC)c(OC)cc2c2ccc3cc4c(cc3c21)OCO4 [NTD-195] | –
21 | – | > 111 µM | COc1cc2ccc3c4ccccc4c(=O)n(CCN(C)C)c3c2cc1OC [TWL-76H] | –
22 | + (+ is 20-50%) | > 111 µM | COc1cccc2c1ccc1c3ccccc3c(=O)n(CCN(C)C)c21 [TWL-26] | –
23 | – | > 111 µM | COc1cc2ccc3c4cc(OC)c(OC)cc4c(=O)n(CCN(C)C)c3c2cc1OC [TWL-48] | –
24 | + (+ is 20-50%) | 65 µM and 50 µM | COc1cc2c(ccc3c4cc(OC)c(OC)cc4c(=O)n(CCN(C)C)c23)cc1O [TWL-125] | –
25 | – | > 111 µM | COc1cc2ccc3c4cc(OC)c(OC)cc4c(=O)n(CCN(C)C)c3c2cc1O [TWL-131] | –
26 | + (+ is 20-50%) | – | CCC(CO)Nc1nc2c3cc4c(cc3ccc2c2cc(OC)c(OC)cc12)OCO4 (stereo not shown) [NTD-363] | –
27 | – | > 111 µM | CN(C)CCn1c(=O)c2c3c(ccc2c2ccc4cc5c(cc4c21)OCO5)OCO3 [TWL-191] | –
28 | – | > 111 µM | COc1cc2c(NCCN3CCNCC3)nc3c4cc5c(cc4ccc3c2cc1OC)OCO5 [NTD-311] | –
29 | +++ (+++ is 75-95%) | – | CN(C)CCn1c(=O)c2c(O)c(O)ccc2c2ccc3cc4c(cc3c21)OCO4 [TWL-218A] | –
